# Values quoted from earlier work in patent US20080051430A1, “Acylated Piperidine Derivatives as Melanocortin 4-Receptor Agonists” (priority 2004, published 2008).
# Key:
# [1] = tested on: males with psychogenic erectile dysfunction
# [2] = tested on: men with a variety of organic risk factors; details: subcutaneous injection; compared with placebo
# [3] = in vivo, po
substance,measurement,setting,value
Ac-Nle-c[Asp-His-DPhe-Arg-Trp-Lys]-NH2 [MT-II],duration of action,[1]; in vivo,approximately 2.5 hours
same,time to onset of erection,[1]; in vivo,10 to 20 min
same,response rate,[1]; injected intramuscularly or subcutaneously,75%
same,level of sexual desire,[2],significantly higher
same,absorption into the systemic circulation,[3],not absorbed into the systemic circulation
